Measurements as given in PMC3209708 (Journal of medicinal chemistry, 2011).
Read-outs that look alike come from different tables or passages of the source. One block for each molecule: values may come before it.

Assays:
[1] = biological target: FRβ (Homo sapiens, UniProt P14207); conditions: D4 cells, 50 nM [3H]folic acid, folic acid = 1
[2] = biological target: FRα (Homo sapiens, UniProt P15328); conditions: RT16 cells, 50 nM [3H]folic acid, folic acid = 1
[3] = tested on: R2/hPCFT4 cells; assay: Nucleoside/AICA protection from growth inhibition; assay type: cell-based, Chinese hamster; conditions: adenosine 60 µM, thymidine 10 µM, AICA 320 µM
[4] = tested on: subcutaneous human IGROV1 ovarian tumors; assay: In vivo efficacy trial, IGROV1 xenografts; set-up: species or system female ICR SCID mice
[5] = biological target: T1, hPCFT (Homo sapiens, UniProt Q96NT5); assay: Electrophysiology, Xenopus oocytes injected with hPCFT cRNA; assay type: cell-based; conditions: 5 µM, pH 5.5, clamped at -90 mV
T1 sequence (Q96NT5 1-459): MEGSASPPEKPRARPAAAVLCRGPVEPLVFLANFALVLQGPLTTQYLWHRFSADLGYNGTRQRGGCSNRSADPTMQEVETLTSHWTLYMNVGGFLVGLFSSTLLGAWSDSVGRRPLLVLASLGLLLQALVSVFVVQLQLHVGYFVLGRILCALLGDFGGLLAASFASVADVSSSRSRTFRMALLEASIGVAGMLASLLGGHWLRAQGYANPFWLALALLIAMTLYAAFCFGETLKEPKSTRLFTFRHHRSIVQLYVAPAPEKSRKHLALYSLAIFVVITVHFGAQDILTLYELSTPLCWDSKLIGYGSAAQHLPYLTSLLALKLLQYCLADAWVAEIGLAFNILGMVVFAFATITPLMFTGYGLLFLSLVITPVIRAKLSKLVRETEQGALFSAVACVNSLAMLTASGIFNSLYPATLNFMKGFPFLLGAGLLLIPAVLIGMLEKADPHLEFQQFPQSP

[6] = biological target: T1, hPCFT; assay: hPCFT transport assays with [3H]MTX in R2/hPCFT4 cells; assay type: cell-based; conditions: 10 µM competitor, 0.5 µM [3H]MTX, pH 5.5 to pH 7.2, R2/hPCFT4 cells
[7] = tested on: PC43-10 cells (hRFC); conditions: read-out: IC50 PC43-10; cited from earlier work
[8] = biological target: T1, hPCFT; conditions: Lineweaver-Burke plots, ref 14 (Wang et al.), cited from earlier work

Sequence of FRα (P15328 25-257): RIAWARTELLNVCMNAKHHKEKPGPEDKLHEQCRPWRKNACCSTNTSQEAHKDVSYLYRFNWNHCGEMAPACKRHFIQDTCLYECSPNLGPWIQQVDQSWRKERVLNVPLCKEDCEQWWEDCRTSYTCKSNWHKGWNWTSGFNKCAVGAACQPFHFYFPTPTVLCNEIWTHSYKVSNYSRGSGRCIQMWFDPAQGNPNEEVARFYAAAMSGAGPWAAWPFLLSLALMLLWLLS
Sequence of FRβ (P14207 17-255): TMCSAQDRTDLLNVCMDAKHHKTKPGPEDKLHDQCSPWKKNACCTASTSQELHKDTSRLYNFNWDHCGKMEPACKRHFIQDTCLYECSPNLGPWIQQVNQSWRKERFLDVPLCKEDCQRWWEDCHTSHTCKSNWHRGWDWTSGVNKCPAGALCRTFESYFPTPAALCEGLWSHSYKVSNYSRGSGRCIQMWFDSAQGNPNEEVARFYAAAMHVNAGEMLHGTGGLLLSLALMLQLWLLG

relative binding affinity for FRβ [1]: undetectable
relative binding affinity for FRα [2]: undetectable
SMILES: Nc1nc2[nH]c(CCc3ccc(C(=O)N[C@@H](CCC(=O)O)C(=O)O)s3)cc2c(=O)[nH]1 [Compound 2, N-({5-[(2-amino-4-oxo-4,7-dihydro-3H-pyrrolo[2,3-d]pyrimidin-6-yl)ethyl]thiophen-2-yl}carbonyl)-L-glutamic acid]

SMILES: Nc1nc2[nH]c(CCCc3ccc(C(=O)N[C@@H](CCC(=O)O)C(=O)O)s3)cc2c(=O)[nH]1 [Compound 3, N-({5-[(2-amino-4-oxo-4,7-dihydro-3H-pyrrolo[2,3-d]pyrimidin-6-yl)propyl]thiophen-2-yl}carbonyl)-L-glutamic acid]
protection from growth inhibition by nucleosides/AICA [3]: abolished by either adenosine or AICA alone
full recovery of body weight, time post last treatment ([4]; 25 mg/kg/inj, folate-deficient diet): 8 days
full recovery of body weight, time post last treatment ([4]; 40 mg/kg/inj, folate-deficient diet): 10 days
host recovery time ([4]; folate-deficient diet): ≤ 10 days
reversible body weight loss ([4]; standard folate replete diet): 2.7–5%
substrate-induced current [5]: induced currents
inhibition of hPCFT-mediated [3H]MTX transport [6]: potent and essentially equivalent inhibitors

SMILES: Nc1nc2[nH]c(CCCCc3ccc(C(=O)N[C@@H](CCC(=O)O)C(=O)O)s3)cc2c(=O)[nH]1 [Compound 4]
IC50 [7]: > 1 µM
gross log kill ([4]; 112.5 mg/kg/injection iv Q4dx5, folate-deficient diet): 1.2

SMILES: Nc1nc(N)c2nc(CNc3ccc(C(=O)N[C@@H](CCCNC(=O)c4ccccc4C(=O)O)C(=O)O)cc3)cnc2n1 [Compound 9, N^α-(4-amino-4-deoxypteroyl)-N^δ-hemiphthaloyl-L-ornithine]
inhibition of hPCFT-mediated [3H]MTX transport [6]: did not inhibit

SMILES: Nc1nc2c(c(=O)[nH]1)C[C@@H](CCc1ccc(C(=O)N[C@@H](CCC(=O)O)C(=O)O)cc1)CN2 [LMTX, 5,10-dideaza-5,6,7,8-tetrahydrofolate]
protection from growth inhibition by nucleosides/AICA [3]: abolished by either adenosine or AICA alone

SMILES: CN(Cc1cnc2nc(N)nc(N)c2n1)c1ccc(C(=O)N[C@@H](CCC(=O)O)C(=O)O)cc1 [MTX, methotrexate]
Kt ([8]; pH 5.5): 0.28 ± 0.02 µM
Vmax ([8]; pH 5.5): 31.23 ± 4.31 pmol/mg/min
Kt ([8]; pH 6.8): 4.52 ± 0.19 µM
Vmax ([8]; pH 6.8): 13.72 ± 2.26 pmol/mg/min

SMILES: Nc1nc2[nH]cc(CCc3ccc(C(=O)N[C@@H](CCC(=O)O)C(=O)O)cc3)c2c(=O)[nH]1 [PMX, N-{4-[2-(2-amino-3,4-dihydro-4-oxo-7H-pyrrolo[2,3-d]pyrimidin-5-yl)ethyl]benzoyl}-L-glutamic acid]
protection from growth inhibition by nucleosides/AICA [3]: completely reversed by adenosine combined with thymidine
inhibition of hPCFT-mediated [3H]MTX transport [6]: potent and essentially equivalent inhibitors
